Each block holds one compound with its values, some of them ahead of it.
What was measured:
Histone deacetylase 2 = Histone deacetylase 2 (Homo sapiens, UniProt Q92769); assay: Inhibition of HDAC2 (unknown origin) using Boc-Lys (acetyl)-AMC as substrate incubated for 10 mins followed by substrate addition measured after 30 mins by fluorescence assay
Histone deacetylase 1 = Histone deacetylase 1 (Homo sapiens, UniProt Q13547); assay: Inhibition of HDAC1 (unknown origin) using Boc-Lys (acetyl)-AMC as substrate incubated for 10 mins followed by substrate addition measured after 30 mins by fluorescence assay
Histone deacetylase 3 = Histone deacetylase 3 (Homo sapiens, UniProt O15379); assay: Inhibition of HDAC3 (unknown origin) using Boc-Lys (acetyl)-AMC as substrate incubated for 10 mins followed by substrate addition measured after 30 mins by fluorescence assay
HL-60 = assay: cells; conditions: Homo sapiens, HL-60, 48 h
Description: Antiproliferative activity against human HL60 cells after 48 hrs by MTT assay

[1] = Inhibition of class 1 HDAC in human HL60 cells using Boc-Ac-Lys-AMC as substrate incubated for 3 hrs followed by substrate addition measured after 3 hrs by fluorescence assay; assay type: cell-based; conditions: HL-60, 3 h
U-937 = assay: cells; conditions: Homo sapiens, U-937, 48 h
Description: Antiproliferative activity against human U937 cells after 48 hrs by MTT assay

cells = conditions: Homo sapiens, ES-2, 48 h
Description: Antiproliferative activity against human ES2 cells after 48 hrs by MTT assay

HCT-116 = assay: cells; conditions: Homo sapiens, HCT-116, 48 h
U-266 = assay: Antiproliferative activity against human U266 cells after 48 hrs by MTT assay; assay type: functional, cell-based; conditions: U-266, 48 h

Chain of Histone deacetylase 1 (Q13547 whole entry): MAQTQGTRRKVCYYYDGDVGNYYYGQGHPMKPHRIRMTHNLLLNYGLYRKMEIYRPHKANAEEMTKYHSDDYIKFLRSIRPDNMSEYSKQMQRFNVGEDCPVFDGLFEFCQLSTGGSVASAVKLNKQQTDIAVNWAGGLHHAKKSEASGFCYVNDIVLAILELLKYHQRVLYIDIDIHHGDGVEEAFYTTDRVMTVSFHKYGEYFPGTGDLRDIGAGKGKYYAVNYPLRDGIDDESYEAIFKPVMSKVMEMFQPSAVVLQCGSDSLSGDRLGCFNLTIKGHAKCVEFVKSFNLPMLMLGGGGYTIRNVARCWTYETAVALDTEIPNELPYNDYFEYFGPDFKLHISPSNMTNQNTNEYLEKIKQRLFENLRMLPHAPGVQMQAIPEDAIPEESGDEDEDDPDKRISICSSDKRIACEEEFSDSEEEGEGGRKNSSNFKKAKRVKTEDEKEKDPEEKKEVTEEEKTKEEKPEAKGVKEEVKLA
Chain of Histone deacetylase 3 (O15379 whole entry): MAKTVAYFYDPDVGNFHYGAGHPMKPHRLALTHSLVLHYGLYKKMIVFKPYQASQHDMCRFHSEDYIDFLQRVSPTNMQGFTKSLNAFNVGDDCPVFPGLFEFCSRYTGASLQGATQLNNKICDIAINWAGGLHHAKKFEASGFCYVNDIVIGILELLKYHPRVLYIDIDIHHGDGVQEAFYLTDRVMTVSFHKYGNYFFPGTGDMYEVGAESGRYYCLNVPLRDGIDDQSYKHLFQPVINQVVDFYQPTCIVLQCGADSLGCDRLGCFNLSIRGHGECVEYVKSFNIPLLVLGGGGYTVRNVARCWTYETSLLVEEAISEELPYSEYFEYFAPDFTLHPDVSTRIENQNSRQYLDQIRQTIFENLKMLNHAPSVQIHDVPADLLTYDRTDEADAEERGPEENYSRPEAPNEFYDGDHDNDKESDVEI
Chain of Histone deacetylase 2 (Q92769 whole entry): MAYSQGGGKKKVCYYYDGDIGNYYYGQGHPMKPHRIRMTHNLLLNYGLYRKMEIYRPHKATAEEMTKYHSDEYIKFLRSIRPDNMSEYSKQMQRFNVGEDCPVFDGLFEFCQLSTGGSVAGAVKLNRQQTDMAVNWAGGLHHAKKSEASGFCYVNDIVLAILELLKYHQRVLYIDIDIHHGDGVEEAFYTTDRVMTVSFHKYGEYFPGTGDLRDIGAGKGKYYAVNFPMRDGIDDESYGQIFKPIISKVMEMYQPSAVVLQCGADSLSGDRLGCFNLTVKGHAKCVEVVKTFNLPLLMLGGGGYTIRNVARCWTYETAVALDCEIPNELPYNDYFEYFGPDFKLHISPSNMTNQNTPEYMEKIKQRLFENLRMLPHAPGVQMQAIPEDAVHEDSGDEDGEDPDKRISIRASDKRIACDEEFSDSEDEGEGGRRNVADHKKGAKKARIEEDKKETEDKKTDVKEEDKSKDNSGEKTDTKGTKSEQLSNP

SMILES: COc1ccc(C(=O)N[C@@H](Cc2c[nH]c3ccccc23)C(=O)NCCCCCC(=O)Nc2cc(-c3ccccc3)ccc2N)cc1
IC50 (U-937): > 20 µM
IC50 (Histone deacetylase 2): 490 nM
IC50 (cells): > 20 µM
IC50 (Histone deacetylase 1): 55.5 nM
IC50 (HCT-116): > 20 µM
IC50 (U-266): > 20 µM
IC50 (Histone deacetylase 3): 5630 nM

SMILES: Nc1ccccc1NC(=O)c1ccc(CNC(=O)[C@H](Cc2c[nH]c3ccccc23)NC(=O)c2cccs2)cc1
IC50 (HL-60): 1740 nM
IC50 [1]: 780 nM

SMILES: COc1ccc(C(=O)N[C@H](COc2ccc(C(=O)Nc3ccccc3N)cc2)Cc2c[nH]c3ccccc23)cc1
IC50 (Histone deacetylase 2): 111 nM
IC50 (Histone deacetylase 1): 14.7 nM
IC50 (Histone deacetylase 3): 90 nM

SMILES: COc1ccc(C(=O)N[C@@H](Cc2c[nH]c3ccccc23)C(=O)Nc2ccc(C(=O)Nc3ccc(F)cc3N)cc2)cc1
IC50 (Histone deacetylase 2): 121 nM
IC50 (Histone deacetylase 1): 91.7 nM
IC50 (Histone deacetylase 3): 167 nM

SMILES: COc1ccc(C(=O)N[C@@H](Cc2c[nH]c3ccccc23)C(=O)NCCCCCC(=O)Nc2ccccc2N)cc1
IC50 (Histone deacetylase 2): 296 nM
IC50 (Histone deacetylase 1): 58.6 nM
IC50 (Histone deacetylase 3): 42.9 nM

SMILES: COc1ccc(C(=O)N[C@@H](Cc2c[nH]c3ccccc23)C(=O)NCc2ccc(C(=O)Nc3ccc(F)cc3N)cc2)cc1
IC50 (Histone deacetylase 2): 179 nM
IC50 (Histone deacetylase 1): 171 nM
IC50 (Histone deacetylase 3): 243 nM

SMILES: COc1ccc(C(=O)N[C@H](CNCc2ccc(C(=O)Nc3ccccc3N)cc2)Cc2c[nH]c3ccccc23)cc1
IC50 (Histone deacetylase 2): 21.2 nM
IC50 (Histone deacetylase 1): 29.9 nM
IC50 (Histone deacetylase 3): 223 nM

SMILES: Nc1ccccc1NC(=O)c1ccc(CNC(=O)[C@H](Cc2c[nH]c3ccccc23)NC(=O)c2ccccn2)cc1
IC50 (HL-60): 6090 nM
IC50 [1]: 1610 nM

SMILES: COc1ccc(C(=O)N[C@@H](Cc2c[nH]c3ccccc23)C(=O)Nc2ccc(C(=O)Nc3ccccc3N)cc2)cc1
IC50 (HL-60): 2140 nM
IC50 [1]: 850 nM
IC50 (Histone deacetylase 2): 441 nM
IC50 (Histone deacetylase 1): 49.6 nM
IC50 (Histone deacetylase 3): 227 nM

Continued, values first:

IC50 (Histone deacetylase 2): 314 nM
IC50 (Histone deacetylase 1): 36.5 nM
IC50 (Histone deacetylase 3): 62500 nM
SMILES: COc1ccc(C(=O)N[C@@H](Cc2c[nH]c3ccccc23)C(=O)Nc2ccc(C(=O)Nc3cc(-c4cccs4)ccc3N)cc2)cc1

IC50 (HL-60): 5850 nM
IC50 [1]: 1020 nM
SMILES: Nc1ccccc1NC(=O)c1ccc(CNC(=O)[C@H](Cc2c[nH]c3ccccc23)NC(=O)c2cnccn2)cc1

IC50 (HL-60): 2400 nM
IC50 [1]: 910 nM
SMILES: Nc1ccccc1NC(=O)c1ccc(CNC(=O)[C@H](Cc2c[nH]c3ccccc23)NC(=O)c2ccco2)cc1

IC50 (HL-60): 3090 nM
IC50 [1]: 1980 nM
SMILES: Nc1ccccc1NC(=O)c1ccc(CNC(=O)[C@H](Cc2c[nH]c3ccccc23)NC(=O)c2ccc(C(F)(F)F)cc2)cc1

IC50 (HL-60): > 20000 nM
IC50 [1]: > 10000 nM
IC50 (Histone deacetylase 2): > 20000 nM
IC50 (Histone deacetylase 1): > 20000 nM
IC50 (Histone deacetylase 3): > 20000 nM
SMILES: COc1ccc(C(=O)N[C@H](COc2ccc(CC(=O)Nc3ccccc3N)cc2)Cc2c[nH]c3ccccc23)cc1

IC50 (Histone deacetylase 2): 217 nM
IC50 (Histone deacetylase 1): 284 nM
IC50 (Histone deacetylase 3): 261 nM
SMILES: COc1ccc(C(=O)N[C@H](COc2ccc(/C=C/C(=O)Nc3ccccc3N)cc2)Cc2c[nH]c3ccccc23)cc1

IC50 (HL-60): 2380 nM
IC50 [1]: 1510 nM
SMILES: CN(C)c1ccc(C(=O)N[C@@H](Cc2c[nH]c3ccccc23)C(=O)NCc2ccc(C(=O)Nc3ccccc3N)cc2)cc1
